Test results published in the NIST ThermoML archive (doi:10.1016/j.fluid.2013.07.008).
Numbers after ± are expanded uncertainties.

Assay: xn = mol fraction of the nth substance listed
Conditions: Capillary rise

CC [ethane] + C
surface tension liquid-gas (93.15 K, x2 = 0): 32.9 ± 1.6 mN/m | surface tension liquid-gas (133.15 K, x2 = 0): 25.32 ± 1.3 mN/m | surface tension liquid-gas (133.15 K, x2 = 0.194): 20.74 ± 1 mN/m | surface tension liquid-gas (133.15 K, x2 = 0.414): 16.34 ± 0.82 mN/m | surface tension liquid-gas (133.15 K, x2 = 0.527): 14.45 ± 0.72 mN/m | surface tension liquid-gas (133.15 K, x2 = 0.821): 10.78 ± 0.54 mN/m | surface tension liquid-gas (173.15 K, x2 = 0): 18.26 ± 0.91 mN/m | surface tension liquid-gas (173.15 K, x2 = 0.133): 15.59 ± 0.78 mN/m | surface tension liquid-gas (173.15 K, x2 = 0.139): 15.37 ± 0.77 mN/m | surface tension liquid-gas (173.15 K, x2 = 0.256): 12.87 ± 0.65 mN/m | surface tension liquid-gas (173.15 K, x2 = 0.421): 9.8 ± 0.49 mN/m | surface tension liquid-gas (173.15 K, x2 = 0.429): 9.6 ± 0.48 mN/m | surface tension liquid-gas (173.15 K, x2 = 0.459): 9.07 ± 0.46 mN/m | surface tension liquid-gas (173.15 K, x2 = 0.565): 7.67 ± 0.39 mN/m | surface tension liquid-gas (173.15 K, x2 = 0.587): 7.14 ± 0.36 mN/m | surface tension liquid-gas (173.15 K, x2 = 0.684): 5.98 ± 0.3 mN/m | surface tension liquid-gas (173.15 K, x2 = 0.691): 5.79 ± 0.29 mN/m | surface tension liquid-gas (173.15 K, x2 = 0.793): 4.51 ± 0.23 mN/m | surface tension liquid-gas (173.15 K, x2 = 0.818): 4.29 ± 0.22 mN/m | surface tension liquid-gas (173.15 K, x2 = 0.821): 4.25 ± 0.22 mN/m | surface tension liquid-gas (193.15 K, x2 = 0): 15.01 ± 0.75 mN/m | surface tension liquid-gas (193.15 K, x2 = 0.134): 12.26 ± 0.62 mN/m | surface tension liquid-gas (193.15 K, x2 = 0.16): 11.62 ± 0.58 mN/m | surface tension liquid-gas (193.15 K, x2 = 0.284): 9.34 ± 0.47 mN/m | surface tension liquid-gas (193.15 K, x2 = 0.287): 9.07 ± 0.46 mN/m | surface tension liquid-gas (193.15 K, x2 = 0.395): 7.34 ± 0.37 mN/m | surface tension liquid-gas (193.15 K, x2 = 0.501): 5.47 ± 0.28 mN/m | surface tension liquid-gas (193.15 K, x2 = 0.672): 3.49 ± 0.18 mN/m | surface tension liquid-gas (193.15 K, x2 = 0.685): 3.23 ± 0.17 mN/m | surface tension liquid-gas (213.15 K, x2 = 0): 11.79 ± 0.59 mN/m | surface tension liquid-gas (213.15 K, x2 = 0.024): 11.22 ± 0.56 mN/m | surface tension liquid-gas (213.15 K, x2 = 0.116): 9.57 ± 0.48 mN/m | surface tension liquid-gas (213.15 K, x2 = 0.17): 8.6 ± 0.43 mN/m | surface tension liquid-gas (213.15 K, x2 = 0.238): 7.28 ± 0.37 mN/m | surface tension liquid-gas (213.15 K, x2 = 0.447): 4.11 ± 0.21 mN/m | surface tension liquid-gas (213.15 K, x2 = 0.539): 2.71 ± 0.14 mN/m | surface tension liquid-gas (233.15 K, x2 = 0): 8.77 ± 0.44 mN/m | surface tension liquid-gas (233.15 K, x2 = 0.075): 7.19 ± 0.36 mN/m | surface tension liquid-gas (233.15 K, x2 = 0.143): 6.06 ± 0.31 mN/m | surface tension liquid-gas (233.15 K, x2 = 0.153): 5.89 ± 0.3 mN/m | surface tension liquid-gas (233.15 K, x2 = 0.214): 4.93 ± 0.25 mN/m | surface tension liquid-gas (233.15 K, x2 = 0.228): 4.7 ± 0.24 mN/m | surface tension liquid-gas (233.15 K, x2 = 0.292): 3.63 ± 0.19 mN/m | surface tension liquid-gas (233.15 K, x2 = 0.297): 3.55 ± 0.18 mN/m | surface tension liquid-gas (233.15 K, x2 = 0.362): 2.74 ± 0.14 mN/m | surface tension liquid-gas (233.15 K, x2 = 0.369): 2.58 ± 0.14 mN/m | surface tension liquid-gas (253.15 K, x2 = 0): 5.77 ± 0.29 mN/m | surface tension liquid-gas (253.15 K, x2 = 0.048): 5.17 ± 0.26 mN/m | surface tension liquid-gas (253.15 K, x2 = 0.099): 4.4 ± 0.22 mN/m | surface tension liquid-gas (253.15 K, x2 = 0.145): 3.73 ± 0.19 mN/m | surface tension liquid-gas (253.15 K, x2 = 0.196): 2.98 ± 0.15 mN/m | surface tension liquid-gas (253.15 K, x2 = 0.241): 2.34 ± 0.12 mN/m | surface tension liquid-gas (253.15 K, x2 = 0.242): 2.28 ± 0.12 mN/m | surface tension liquid-gas (263.15 K, x2 = 0): 4.48 ± 0.23 mN/m | surface tension liquid-gas (263.15 K, x2 = 0.048): 3.82 ± 0.2 mN/m | surface tension liquid-gas (263.15 K, x2 = 0.098): 3.15 ± 0.16 mN/m | surface tension liquid-gas (263.15 K, x2 = 0.142): 2.58 ± 0.13 mN/m | surface tension liquid-gas (263.15 K, x2 = 0.185): 2.03 ± 0.11 mN/m | surface tension liquid-gas (273.15 K, x2 = 0): 3.2 ± 0.16 mN/m | surface tension liquid-gas (273.15 K, x2 = 0.035): 2.76 ± 0.14 mN/m | surface tension liquid-gas (273.15 K, x2 = 0.083): 2.19 ± 0.12 mN/m | surface tension liquid-gas (273.15 K, x2 = 0.124): 1.75 ± 0.1 mN/m | surface tension liquid-gas (283.15 K, x2 = 0): 1.96 ± 0.11 mN/m | surface tension liquid-gas (283.15 K, x2 = 0.017): 1.82 ± 0.1 mN/m | surface tension liquid-gas (283.15 K, x2 = 0.045): 1.5 ± 0.08 mN/m | surface tension liquid-gas (283.15 K, x2 = 0.065): 1.33 ± 0.08 mN/m | surface tension liquid-gas (283.15 K, x2 = 0.067): 1.29 ± 0.07 mN/m

C [methane] + CC
surface tension liquid-gas (93.15 K, x1 = 1): 16.69 ± 0.84 mN/m | surface tension liquid-gas (133.15 K, x1 = 1): 8.78 ± 0.44 mN/m | surface tension liquid-gas (173.15 K, x1 = 1): 2 ± 0.11 mN/m
